Source: patent US6914045B2, “Glycopeptide antibiotics” (Wyeth Holdings Corporation, priority 2001, dated 2005)
Values after ≈ are worked out from the molar mass of the structure shown.

Experiments:
Experiment in all cases: in vitro antibacterial evaluation, MIC by broth dilution
Type in all cases: cell-based
Streptococcus sp. = conditions: broth dilution, 18 hours at 35° C.
Description: (§1) Methods for in vitro Antibacterial Evaluation (Table 1)
(§2) The minimum inhibitory concentration (MIC), the lowest concentration of the antibiotic which inhibits growth of the test organism, is determined by the broth dilution method using Muller-Hinton II […] (Baltimore Biological Laboratories) following the recommendations of the National Committee for Clinical Laboratory Standards [Methods for dilution antimicrobial susceptibility tests for bacteria that grow aerobically, approved standard M7-A2, National Committee for Clinical Laboratory Standards, Villanova, Pa.].
(§3) An inoculum level of 5×10^5 CFU/mL, and a range of antibiotic concentrations (64-0.06 μg/mL) is used. […] The test organisms include a spectrum of Gram-positive bacteria comprised of Staphylococcus sp., Streptococcus sp. and Enterococcus sp. These organisms include recent clinical isolates that are resistant to methicillin, penicillin and/or vancomycin.

Enterococcus sp. = conditions: broth dilution, 18 hours at 35° C.
Description: as §1, §2, §3

Staphylococcus sp. = conditions: broth dilution, 18 hours at 35° C.
Description: as §1, §2, §3

Escherichia coli = conditions: 18 hours at 35° C.

MIC Streptococcus agalactiae (GC 4564) (Streptococcus sp.): <0.12 µg/mL | MIC Streptococcus pneumoniae (ATCC 6301) (Streptococcus sp.): <0.12 µg/mL | MIC Streptococcus pneumoniae (GC 1894) (Streptococcus sp.): <0.12 µg/mL | MIC Streptococcus pneumoniae (GC 4565) (Streptococcus sp.): <0.12 µg/mL | MIC Streptococcus pyogenes (GC 4563) (Streptococcus sp.): <0.12 µg/mL | MIC Streptococcus pneumoniae (ATCC 6301) (Streptococcus sp.; inoculum 5×10^5 CFU/mL, strain ATCC 6301): <0.12 µg/mL | MIC Streptococcus pneumoniae (GC 1894) (Streptococcus sp.; inoculum 5×10^5 CFU/mL, strain GC 1894): <0.12 µg/mL | MIC Streptococcus pyogenes (GC 4563) (Streptococcus sp.; inoculum 5×10^5 CFU/mL, strain GC 4563): <0.12 µg/mL | MIC Streptococcus agalactiae (GC 4564) (Streptococcus sp.; inoculum 5×10^5 CFU/mL, strain GC 4564): <0.12 µg/mL | MIC Streptococcus pneumoniae (GC 4565) (Streptococcus sp.; inoculum 5×10^5 CFU/mL, strain GC 4565): <0.12 µg/mL | MIC Enterococcus avium (GC 4558) (Enterococcus sp.): 1 µg/mL (≈ 0.699 µM) | MIC Enterococcus faecalis (ATCC 29212) (Enterococcus sp.): 4 µg/mL (≈ 2.79 µM) | MIC Enterococcus faecalis (GC 2242) (Enterococcus sp.): 4 µg/mL (≈ 2.79 µM) | MIC Enterococcus faecalis (GC 2691) (Enterococcus sp.): 2 µg/mL (≈ 1.4 µM) | MIC Enterococcus faecalis (GC 3059) (Enterococcus sp.): 2 µg/mL (≈ 1.4 µM) | MIC Enterococcus faecalis (GC 4552) (Enterococcus sp.): 4 µg/mL (≈ 2.79 µM) | MIC Enterococcus faecalis (GC 4553) (Enterococcus sp.): 4 µg/mL (≈ 2.79 µM) | MIC Enterococcus faecalis (GC 4554) (Enterococcus sp.): 4 µg/mL (≈ 2.79 µM) | MIC Enterococcus faecalis (GC 6189) (Enterococcus sp.): 2 µg/mL (≈ 1.4 µM) | MIC Enterococcus faecium (GC 2243) (Enterococcus sp.): 4 µg/mL (≈ 2.79 µM) | MIC Enterococcus faecium (GC 4556) (Enterococcus sp.): 4 µg/mL (≈ 2.79 µM) | MIC Enterococcus faecium (GC 4557) (Enterococcus sp.): 2 µg/mL (≈ 1.4 µM) | MIC Enterococcus faecalis (ATCC 29212) (Enterococcus sp.; inoculum 5×10^5 CFU/mL, strain ATCC 29212): 4 µg/mL (≈ 2.79 µM) | MIC Enterococcus faecalis (GC 2242) (Enterococcus sp.; inoculum 5×10^5 CFU/mL, strain GC 2242): 4 µg/mL (≈ 2.79 µM) | MIC Enterococcus faecium (GC 2243) (Enterococcus sp.; inoculum 5×10^5 CFU/mL, strain GC 2243): 4 µg/mL (≈ 2.79 µM) | MIC Enterococcus faecalis (GC 2691) (Enterococcus sp.; inoculum 5×10^5 CFU/mL, strain GC 2691): 2 µg/mL (≈ 1.4 µM) | MIC Enterococcus faecalis (GC 3059) (Enterococcus sp.; inoculum 5×10^5 CFU/mL, strain GC 3059): 2 µg/mL (≈ 1.4 µM) | MIC Enterococcus faecalis (GC 4552) (Enterococcus sp.; inoculum 5×10^5 CFU/mL, strain GC 4552): 4 µg/mL (≈ 2.79 µM) | MIC Enterococcus faecalis (GC 4553) (Enterococcus sp.; inoculum 5×10^5 CFU/mL, strain GC 4553): 4 µg/mL (≈ 2.79 µM) | MIC Enterococcus faecalis (GC 4554) (Enterococcus sp.; inoculum 5×10^5 CFU/mL, strain GC 4554): 4 µg/mL (≈ 2.79 µM) | MIC Enterococcus faecium (GC 4556) (Enterococcus sp.; inoculum 5×10^5 CFU/mL, strain GC 4556): 4 µg/mL (≈ 2.79 µM) | MIC Enterococcus faecium (GC 4557) (Enterococcus sp.; inoculum 5×10^5 CFU/mL, strain GC 4557): 2 µg/mL (≈ 1.4 µM) | MIC Enterococcus avium (GC 4558) (Enterococcus sp.; inoculum 5×10^5 CFU/mL, strain GC 4558): 1 µg/mL (≈ 0.699 µM) | MIC Enterococcus faecalis (GC 6189) (Enterococcus sp.; inoculum 5×10^5 CFU/mL, strain GC 6189): 2 µg/mL (≈ 1.4 µM) | MIC Staphylococcus aureus (ATCC 29213) (Staphylococcus sp.; strain ATCC 29213): 1 µg/mL (≈ 0.699 µM) | MIC Staphylococcus aureus (GC 1131) (Staphylococcus sp.; strain GC 1131): 2 µg/mL (≈ 1.4 µM) | MIC Staphylococcus aureus (GC 3051) (Staphylococcus sp.; strain GC 3051): 2 µg/mL (≈ 1.4 µM) | MIC Staphylococcus aureus (GC 3053) (Staphylococcus sp.; strain GC 3053): 1 µg/mL (≈ 0.699 µM) | MIC Staphylococcus aureus (GC 4541) (Staphylococcus sp.; strain GC 4541): 1 µg/mL (≈ 0.699 µM) | MIC Staphylococcus aureus (GC 4542) (Staphylococcus sp.; strain GC 4542): 1 µg/mL (≈ 0.699 µM) | MIC Staphylococcus aureus-SMITH (GC 4543) (Staphylococcus sp.; strain GC 4543): 1 µg/mL (≈ 0.699 µM) | MIC Staphylococcus aureus (GC 4544) (Staphylococcus sp.; strain GC 4544): 1 µg/mL (≈ 0.699 µM) | MIC Staphylococcus aureus (GC 4545) (Staphylococcus sp.; strain GC 4545): 1 µg/mL (≈ 0.699 µM) | MIC Coagulase Negative Staphylococcus (GC 4547) (Staphylococcus sp.; strain GC 4547): 1 µg/mL (≈ 0.699 µM) | MIC Coagulase Negative Staphylococcus (GC 4548) (Staphylococcus sp.; strain GC 4548): 0.5 µg/mL (≈ 0.349 µM) | MIC Coagulase Negative Staphylococcus (GC 4549) (Staphylococcus sp.; strain GC 4549): 0.5 µg/mL (≈ 0.349 µM) | MIC Coagulase Negative Staphylococcus (GC 4551) (Staphylococcus sp.; strain GC 4551): 4 µg/mL (≈ 2.79 µM) | MIC Escherichia coli (ATCC 25922) (Escherichia coli): 32 µg/mL (≈ 22.4 µM) | MIC Escherichia coli (GC 4559) (Escherichia coli): 64 µg/mL (≈ 44.7 µM) | MIC Escherichia coli (GC 4560) (Escherichia coli): 2 µg/mL (≈ 1.4 µM)
SMILES: CC(c1ccccc1)C1NC(=O)CNC(=O)C(CO)NC(=O)C(C(O)C2CNC(=N)N2C2OC(CO)C(O)C(O)C2O)NC(=O)C(C(O)C2CNC(=N)N2)NC(=O)C(Cc2ccc(OC3OC(CO)C(OC4OC5COC6(CC(C)(C)CC(C)(C)C6)OC5C(O)C4O)C(O)C3O)cc2)NC1=O (stereo not drawn) [Example 207]
MIC Staphylococcus haemolyticus (GC 4546) (Staphylococcus sp.; strain GC 4546): 1 µg/mL (≈ 0.699 µM)
